Measured values published in patent US11168055B2, “Endocyclic thiamidinoamide-arylamide compound and use thereof for treating hepatitis B” (SHANGHAI LONGWOOD BIOPHARMACEUTICALS CO., LTD., priority 2017, dated 2021).
Like-named read-outs stand apart in the source and are kept apart here.

What was measured:
[1] = system: HBV DNA in the supernatant of HepG2.2.15; experiment: Determination of anti-HBV activity in HepG2.2.15 cell (HBV DNA in supernatant by qPCR); format: cell-based, Hepatitis B virus
[2] = Determination of cytotoxicity (HepG2 cells, resazurin assay, 4 days); format: cell-based; settings: human, read-out: Experiment 3 Cytotoxicity CC50
Experimental: Experiment 3: Determination of Cytotoxicity
The cytotoxicity of the test compound was tested using HepG2 cells. The cells were incubated for 4 days in the presence of the test compound. Cell activity was assessed using the resazurin assay.

[3] = HepG2.2.15 cells, HBV DNA, read-out: Experiment 2 Cell experiment EC50
[4] = Hepatitis B virus, HepG2.2.15, HepG2.2.15 cells, HBV DNA, read-out: Experiment 2 Cell experiment EC50

Row | Structure (SMILES) | EC50 [1, 3] [nM] | CC50 at 4 days [2] [nM] | EC50 [1, 4] [nM] | EC50 ([1]; Hepatitis B virus, HepG2.2.15, read-out: Experiment 2 Cell experiment EC50) [nM]
1 | CN=S1(=O)N[C@@H](CC(C)C)CCc2c1cn(C)c2C(=O)Nc1ccc(F)c(C#N)c1 (single isomer, unassigned) [Compound 60v1] | 100 to 1000 | > 30000 |  | 
2 | CC(C)[C@H]1C=Cc2c(cn(C)c2C(=O)Nc2ccnc(C(F)F)c2)S(=N)(=O)N1 (single isomer, unassigned) [Compound 10f1] | 100 to 1000 | > 30000 |  | 
3 | CC(C)C[C@H]1C=Cc2c(nn(C)c2C(=O)Nc2ccc(F)c(C#N)c2)S(=N)(=O)N1 (single isomer, unassigned) [Compound 70b1] | 100 to 1000 | > 30000 |  | 
4 | CC(O)[C@H]1CCc2c(cn(C)c2C(=O)Nc2ccc(F)c(F)c2)S(=N)(=O)N1 (single isomer, unassigned) [Compound 40a1] |  | > 30000 | 100 to 1000 | 
5 | CN=S1(=O)N[C@@H](C(C)C)CCc2c1cn(C)c2C(=O)Nc1ccc(F)c(F)c1 (single isomer, unassigned) [Compound 60a1] | 100 to 1000 | > 30000 |  | 
6 | CCN=S1(=O)N[C@@H](C(C)C)CCc2c1cn(C)c2C(=O)Nc1ccc(F)c(C#N)c1 (single isomer, unassigned) [Compound 60g1] | 100 to 1000 | > 30000 |  | 
7 | CN=S1(=O)N[C@@H](C(C)C)CCc2c1nn(C)c2C(=O)Nc1ccc(F)c(C#N)c1 (single isomer, unassigned) [Compound 90a1] | 100 to 1000 | > 30000 |  | 
8 | CN=S1(=O)N[C@@H](CC(C)C)C=Cc2c1cn(C)c2C(=O)Nc1ccc(F)c(C#N)c1 (single isomer, unassigned) [Compound 50s1] | 100 to 1000 | > 30000 |  | 
9 | CN=S1(=O)N[C@@H](C(C)C)C=Cc2c1cn(C)c2C(=O)Nc1ccc(F)c(F)c1 (single isomer, unassigned) [Compound 50a1] | 100 to 1000 | > 30000 |  | 
10 | CC(C)[C@H]1C=Cc2c(cn(C)c2C(=O)Nc2cc(F)nc(C#N)c2)S(=N)(=O)N1 (single isomer, unassigned) [Compound 10e1] | 100 to 1000 | > 30000 |  | 
11 | CC(C)[C@H]1CCc2c(cn(C)c2C(=O)Nc2ccc(F)c(C#N)c2)S(=N)(=O)N1 (single isomer, unassigned) [Compound 20b1] | 100 to 1000 | > 30000 |  | 
12 | CN=S1(=O)N[C@@H](CC(C)C)CCc2c1nn(C)c2C(=O)Nc1ccc(F)c(C#N)c1 (single isomer, unassigned) [Compound 90b1] | 100 to 1000 | > 30000 |  | 
13 | CC(C)[C@H]1C=Cc2c(cn(C)c2C(=O)Nc2cc(F)c(F)c(F)c2)S(=N)(=O)N1 (single isomer, unassigned) [Compound 10c1] | 100 to 1000 | > 30000 |  | 
14 | CC(C)[C@H]1CCc2c(cn(C)c2C(=O)Nc2ccc(F)c(F)c2)S(=N)(=O)N1 (single isomer, unassigned) [Compound 20a1] | 100 to 1000 | > 30000 |  | 
15 | CC(C)C[C@H]1CCc2c(cn(C)c2C(=O)Nc2ccc(F)c(C#N)c2)S(=O)(=NC(C)C)N1 (single isomer, unassigned) [Compound 60x1] | 100 to 1000 | > 30000 |  | 
16 | CC(C)[C@@H]1C=Cc2c(cn(C)c2C(=O)Nc2ccc(F)c(F)c2)S(=N)(=O)N1 (single isomer, unassigned) [Compound 10g1] | 100 to 1000 | > 30000 |  | 
17 | CC[C@H](C)[C@H]1C=Cc2c(cn(C)c2C(=O)Nc2ccc(F)c(F)c2)S(=N)(=O)N1 (single isomer, unassigned) [Compound 10n1] | 100 to 1000 | > 30000 |  | 
18 | Cn1cc2c(c1C(=O)Nc1ccc(F)c(F)c1)CC[C@H](CO)NS2(=N)=O (single isomer, unassigned) [Compound 40g1] |  | > 30000 | 100 to 1000 | 
19 | CC(C)C[C@H]1C=Cc2c(cn(C)c2C(=O)Nc2ccc(F)c(C#N)c2)S(=O)(=NC2CC2)N1 (single isomer, unassigned) [Compound 50v1] | 100 to 1000 | > 30000 |  | 
20 | C[C@@H](OCc1ccccc1)[C@H]1C=Cc2c(cn(C)c2C(=O)Nc2cc(F)c(F)c(F)c2)S(=N)(=O)N1 (single isomer, unassigned) [Compound 10ddd1] | 100 to 1000 | > 30000 |  | 
21 | COc1ccc(CC[C@H](C)[C@H]2CCc3c(cn(C)c3C(=O)Nc3cc(F)c(F)c(F)c3)S(=N)(=O)N2)cc1 (single isomer, unassigned) [Compound 20ttt1] | 100 to 1000 | > 30000 |  | 

Row | Structure (SMILES) | EC50 [1, 3] [nM] | CC50 at 4 days [2] [nM] | EC50 [1, 4] [nM] | EC50 ([1]; Hepatitis B virus, HepG2.2.15, read-out: Experiment 2 Cell experiment EC50) [nM]
22 | C[C@@H](OCc1ccccc1)[C@H]1CCc2c(cn(C)c2C(=O)Nc2ccc(F)c(C#N)c2)S(=N)(=O)N1 (single isomer, unassigned) [Compound 20ccc1] |  | > 30000 | 0.1 to 100 | 
23 | CC(O)[C@H]1C=Cc2c(cn(C)c2C(=O)Nc2cc(F)c(F)c(F)c2)S(=N)(=O)N1 (single isomer, unassigned) [Compound 30c1] |  | > 30000 | 100 to 1000 | 
24 | Cn1cc2c(c1C(=O)Nc1cc(F)nc(C#N)c1)CC[C@H](C1CCCCC1)NS2(=N)=O (single isomer, unassigned) [Compound 20dd1] | 100 to 1000 | > 30000 |  | 
25 | Cn1cc2c(c1C(=O)Nc1ccc(F)c(F)c1)C=C[C@H](C1CCCCC1)NS2(=N)=O (single isomer, unassigned) [Compound 10bb1] | 100 to 1000 | > 30000 |  | 
26 | CC(C)[C@@H]1C=Cc2c(cn(C)c2C(=O)Nc2ccc(F)c(C#N)c2)S(=N)(=O)N1 (single isomer, unassigned) [Compound 10h1] |  | > 30000 | > 1000 | 
27 | CC(C)[C@H]1CCc2c(nn(C)c2C(=O)Nc2ccc(F)c(C#N)c2)S(=N)(=O)N1 (single isomer, unassigned) [Compound 80a1] | 100 to 1000 | > 30000 |  | 
28 | CC(O)[C@H]1CCc2c(cn(C)c2C(=O)Nc2ccc(F)c(C#N)c2)S(=N)(=O)N1 (single isomer, unassigned) [Compound 40b1] |  | > 30000 | 100 to 1000 | 
29 | CC(O)[C@H]1C=Cc2c(cn(C)c2C(=O)Nc2ccc(F)c(F)c2)S(=N)(=O)N1 (single isomer, unassigned) [Compound 30a1] |  | > 30000 | 100 to 1000 | 
30 | CC(C)C[C@H]1C=Cc2c(cn(C)c2C(=O)Nc2cc(F)nc(C#N)c2)S(=N)(=O)N1 (single isomer, unassigned) [Compound 10w1] | 100 to 1000 | > 30000 |  | 
31 | CCN=S1(=O)N[C@@H](CC(C)C)C=Cc2c1cn(C)c2C(=O)Nc1ccc(F)c(C#N)c1 (single isomer, unassigned) [Compound 50t1] | 100 to 1000 | > 30000 |  | 
32 | CC(O)[C@H]1C=Cc2c(cn(C)c2C(=O)Nc2ccc(F)c(C#N)c2)S(=N)(=O)N1 (single isomer, unassigned) [Compound 30b1] |  | > 30000 | 100 to 1000 | 
33 | CC(C)C[C@H]1CCc2c(nn(C)c2C(=O)Nc2ccc(F)c(C#N)c2)S(=N)(=O)N1 (single isomer, unassigned) [Compound 80b1] | 100 to 1000 | > 30000 |  | 
34 | COc1ccc(CC[C@H](C)[C@H]2C=Cc3c(cn(C)c3C(=O)Nc3cc(F)nc(C#N)c3)S(=N)(=O)N2)cc1 (single isomer, unassigned) [Compound 10vvv1] | 100 to 1000 | > 30000 |  | 
35 | CC[C@H](C)[C@H]1C=Cc2c(cn(C)c2C(=O)Nc2ccc(F)c(C#N)c2)S(=N)(=O)N1 (single isomer, unassigned) [Compound 10o1] | 100 to 1000 | > 30000 |  | 
36 | CC(C)[C@H]1C=Cc2c(cn(C)c2C(=O)Nc2ccc(F)c(C#N)c2)S(=N)(=O)N1 (single isomer, unassigned) [Compound 10b1] |  | > 30000 |  | 100 to 1000
37 | C[C@@H](OCc1ccccc1)[C@H]1C=Cc2c(cn(C)c2C(=O)Nc2ccc(F)c(C#N)c2)S(=N)(=O)N1 (single isomer, unassigned) [Compound 10ccc1] | 100 to 1000 | > 30000 |  | 
38 | Cn1cc2c(c1C(=O)Nc1ccc(F)c(C#N)c1)C=C[C@H](C1CCCCC1)NS2(=N)=O (single isomer, unassigned) [Compound 10cc1] | 100 to 1000 | > 30000 |  | 
39 | Cn1cc2c(c1C(=O)Nc1ccc(F)c(F)c1)C=C[C@H](CO)NS2(=N)=O (single isomer, unassigned) [Compound 30g1] |  | > 30000 | 100 to 1000 | 
40 | CC(C)[C@H]1CCc2c(cn(C)c2C(=O)Nc2cc(F)c(F)c(F)c2)S(=N)(=O)N1 (single isomer, unassigned) [Compound 20c1] | 100 to 1000 | > 30000 |  | 
41 | CC(C)C[C@H]1CCc2c(cn(C)c2C(=O)Nc2ccc(F)c(C#N)c2)S(=O)(=NC2CC2)N1 (single isomer, unassigned) [Compound 60y1] | 100 to 1000 | > 30000 |  | 
